Measured values from patent publication US9737540B2, “Combination treatment of cancer” (ASTRAZENECA AB, priority 2011, dated 2017).
Like-named read-outs stand apart in the source and are kept apart here.

How the values were obtained:
[1] = system: LNCaP prostate cancer cells (PTEN null, androgen receptor positive); assay type: in vivo; settings: castrated mice
[2] = system: LNCaP prostate tumour cell line; assay: Proliferation assay, Sytox Green endpoint, live cell number after 5 days (LNCaP); assay type: cell-based; settings: LNCaP cells; monotherapy or with MDV-3100 0.1 μM to 10 μM; n=3
Experimental: (§1) The LNCaP and VCAP prostate tumour cell lines (American Tissue Culture Collection) were routinely cultured in RMPI supplemented with 10% FCS and 2 mM L-glutamine. To determine the effect of AZD5363 and MDV-3100, either as a monotherapy or in combination, on cell growth, a proliferation assay was performed using the Sytox Green endpoint to measure live cell number after 5 days. […] Cells were then dosed with increasing concentrations of AZD5363 (0.01-1 μM), MDV-3100 (0.1-10 μM) or a combination of each agent in a 6×6 matrix format. After 5-day exposure to compound, Sytox Green nucleic acid dye (Invitrogen) diluted in TBS-EDTA (TBS=Tris-buffered saline, EDTA=ethylenediaminetetraacetic acid) buffer was added to cells at a final concentration of […] and the number of dead cells detected using an Acumen Explorer. Cells were then permeabilised by the addition of saponin (0.03% final concentration, diluted in TBS-EDTA buffer), incubated overnight and a total cell count measured. The live cell count was then determined by subtracting the number of dead cells per well from the total number of cells. […] The data is presented as % growth using the NCI formulae as follows: [(Ti-Tz)/(C-Tz)]×100 for concentrations for which Ti>/=Tz [(Ti-Tz)/Tz]×100 for concentrations for which Ti<Tz. […] Synergism of the drug combination was evaluated using a unified approach described by C. […]

[3] = system: VCAP prostate tumour cell line; assay: Proliferation assay, Sytox Green endpoint, live cell number after 5 days (VCAP); assay type: cell-based; settings: VCAP cells; monotherapy or with MDV-3100 0.1 μM to 10 μM; n=3
Experimental: as §1

Compound	inhibition of tumour volume ([1]; bicalutamide monotherapy 50 mg/kg qd) [%]	Effect on cell growth / cell death (mean % growth, FIG. 1) [2]	Effect on cell growth (mean % growth, FIG. 2) [3]	inhibition of tumour volume ([1]; AZD5363 monotherapy 100 mg/kg bd, 5 days on, 2 days off) [%]
CC(O)(CS(=O)(=O)c1ccc(F)cc1)C(=O)Nc1ccc(C#N)c(C(F)(F)F)c1 (stereo not shown) [bicalutamide, N-[4-cyano-3-(trifluoromethyl)-phenyl]-3-[(4-fluorophenyl)-sulfonyl]-2-hydroxy-2-methylpropanamide, reference compound]	42			
NC1(C(=O)N[C@@H](CCO)c2ccc(Cl)cc2)CCN(c2ncnc3[nH]ccc23)CC1 [AZD5363, (S)-4-amino-N-(1-(4-chlorophenyl)-3-hydroxypropyl)-1-(7H-pyrrolo[2,3-d]pyrimidin-4-yl)piperidine-4-carboxamide]		can inhibit the growth of LNCaP cells and induce cell death as a monotherapy	can inhibit the growth of VCAP cells as a monotherapy	56
